Results on 13 compounds are retold here after US9458463B2, “Method for treatment of diabetes by a small molecule inhibitor for GRK5” (MAX-PLANCK-GESELLSCHAFT ZUR FÖRDERUNG DER WISSENSCHAFTEN …, priority 2010, dated 2016).

One test has as its system 3T3-L1 cells. Briefly: Cell viability assay (CellTiter-Glo / automated cell number) in 3T3-L1. The following applies: Mus musculus, read-out: Inhibition of cell viability IC50. The format is cell-based. The text has this:
(§1) Luminescent cell viability assay. For the detection of cell viability, the CellTiter-Glo® Luminescent Cell Viability Assay was used. This test is based on a luciferase reaction to measure the amount of ATP in cells. This correlates directly with the number of cells and their viability because cells lose the ability to synthesize ATP directly after e.g. loss of membrane integrity or a cytotoxic event. The protocol was adapted to 24 well plates and to the different culture conditions resulting in a standardized protocol which is described below. Cell lysis, inhibition of endogenous ATPases and detection of ATP was performed by adding the CellTiter-Glo® Reagent to the culture wells. Per well, 100 μl reagent were mixed with the same volume of proper Medium. Lysing of the cells took place by 10 min incubation at RT and moderate shaking. Three times 50 μl cell lysate was transferred into a white 96 well plate to eliminate stray light, and the bioluminescence was measured.
(§2) In a 96 well dish 10000 cells per well (100 μl) were seed and treated for 72 h. At the end of the treatment, cells were fixed with 4% paraformaldehyde in PBS for 15 minutes, permeabilized with 0.1% triton-X 100 in PBS for 15 minutes and stained with Hoechst 33342 (20 μg/ml in PBS; dilute from 20 mg/ml stock) directly to cells in 100 μl medium in PBS for 30 minutes at 37° C. Stained cells were imaged with a Cellomics ArrayScan VT I automated microscope. Images were analyzed with vHCS Scan Target Activation software v5.1.2 to identify apoptotic cells. Six fields per well of a 96 well plate we re-imaged at 10× magnification. First, cells were identified by their nuclei staining in channel 1 of Cellomics and their amount. Staining intensity was plotted and compared between NT controls and compound treated cells. Finally, data was obtained using vHCS View software v 5.1.2 and the numbers of cells present in the 96 well were identified as “Valid Object Count” whereas the percentage of infection was determined as “% selected”. IC50 values have been calculated accordingly.

A further test relates to beta TC6 cells. Nature of the test: Cell viability assay (CellTiter-Glo / automated cell number) in beta TC6. The format is cell-based. The following applies: Mus musculus, read-out: Inhibition of cell viability IC50.
Text: as §1, §2

In the next test the test system is C2C12 cells. Nature of the test: Cell viability assay (CellTiter-Glo / automated cell number) in C2C12. Type of test: cell-based. The following applies: Mus musculus, read-out: Inhibition of cell viability IC50.
Text: as §1, §2

For the next test, the system named is HepG2 cells. Nature of the test: Cell viability assay (CellTiter-Glo / automated cell number) in HepG2. The format is cell-based. The following applies: Homo sapiens, read-out: Inhibition of cell viability IC50.
Text: as §1, §2

Another test deals with T1, full length GRK5 (Homo sapiens, UniProt P34947).
T1 construct: 6/2 fold concentrated full length GRK5 (Millipore, #14-714) in reaction buffer; purchased Millipore 14-714
Briefly: GRK5 kinase activity assay, ADP Glo Kinase Assay technology (Promega). Type of test: biochemical. The following applies: group II; ADP Glo Kinase Assay (Table 9-B). As to the method: The maximal compound assay concentration was set to 100 μM, representing the compound assay concentration used in the primary screen.
Increasing concentrations of GRK5 are incubated together with 100 μM ATP in the absence and presence of 10 μM casein in a reaction buffer. Within this incubation non-phosphorylated casein is converted into phosphorylated casein and ATP is converted into ADP. Thereafter nonconverted ATP is digested into AMP by addition of the ADP-Glo™ Reagent. Subsequently the ADP that is produced by GRK5 activity is phosphorylated back to ATP by addition of Promega Kinase Detection Reagent. These ATP levels serve as measure for the GRK5 activity and are quantified by a luciferase/luciferin reaction.
For GRK5 kinase activity assay, the following protocol was used:
The reaction buffer used was composed of: 20 mM MES pH 6.0, 1 mM DTT, 10 mM MgCl2, 0.01% Tween20 and the reaction volume was 6 μL.
Firstly 4 μL 6/4 fold concentrated substrate and 6/4 fold concentrated ATP in 1 fold concentrated reaction buffer are added to each well of the assay plate. Subsequently 67 nL […] concentrated test compound in 100% DMSO are added to each well except to C− and C+ wells using pin tool. Then 67 nL 100% DMSO are pipetted to C− (no kinase, no compound) and C+ (no compound) wells using pin-tool and 2 μL reaction buffer are added to C− wells. […] After incubation for 120 min. at room temperature 6 μL ADP-Glo™ Reagent (ADP Glo™ Kinase Assay Kit: Promega, V9101) are added to each well to stop the kinase reaction and deplete the unconsumed ATP. After a second incubation for 40 min. at room temperature 12 μL of Kinase Detection Reagent are added to convert ADP to ATP and start luciferase/luciferin reaction for detection of ATP. […] Finally, after incubation for 40 min at room temperature the luminescence intensity was measured.
The activity of the compounds was classified according to IC50 for binding sites of Grk5 into the following ranges:
8800 Customer compounds were screened for their ability to inhibit the enzymatic activity of GRK5. Screening was performed using the ADP Glo™ Kinase Assay technology (Promega). The small molecular weight compounds were delivered at 10 mM stock concentration and were tested at a final assay concentration of 100 μM.
IC50 values were determined in triplicates at 12 concentrations with a dilution factor of three. Triplicates were measured on three different assay plates. The maximal compound assay concentration was set to 100 μM representing the compound assay concentration used in the primary screen. A larger maximal compound assay concentration could not be achieved since the maximal compound concentration on the compound plates was 10 mM (>1% DMSO concentration in the assay).

T1 sequence (P34947 whole entry): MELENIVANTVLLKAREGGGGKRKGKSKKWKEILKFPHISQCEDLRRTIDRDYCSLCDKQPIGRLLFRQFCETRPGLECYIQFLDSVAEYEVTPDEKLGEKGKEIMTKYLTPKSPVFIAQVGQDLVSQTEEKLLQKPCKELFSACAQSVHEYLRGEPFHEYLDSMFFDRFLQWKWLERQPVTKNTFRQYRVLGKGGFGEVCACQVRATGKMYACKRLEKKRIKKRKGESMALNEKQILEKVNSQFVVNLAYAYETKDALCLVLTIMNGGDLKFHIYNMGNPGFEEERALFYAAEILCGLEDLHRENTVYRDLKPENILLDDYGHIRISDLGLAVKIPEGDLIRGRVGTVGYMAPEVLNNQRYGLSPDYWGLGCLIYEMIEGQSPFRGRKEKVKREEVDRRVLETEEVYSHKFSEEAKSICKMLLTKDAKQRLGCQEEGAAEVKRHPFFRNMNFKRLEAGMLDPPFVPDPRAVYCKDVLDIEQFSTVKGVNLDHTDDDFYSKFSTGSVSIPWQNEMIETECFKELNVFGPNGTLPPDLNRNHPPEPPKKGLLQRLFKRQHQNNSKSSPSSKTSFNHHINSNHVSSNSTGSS

With `CCN(CC)CCNC(=O)c1c(C)[nH]c(/C=C2\C(=O)Nc3ccc(C(=O)N[C@@H](C)c4ccccc4)cc32)c1C` [II.60, (3Z)-3-[(4-{[2-(diethylamino)ethyl]carbamoyl}-3,5-dimethyl-1H-pyrrol-2-yl)methylene]-2-oxo-N-[(1S)-1-phenylethyl]indoline-5-carboxamide], the IC50 in the test with 3T3-L1 cells worked out at 2 µM; in the test with beta TC6 cells, 2.21 µM; with C2C12 cells it was 4.06 µM; with HepG2 cells, 2.29 µM.

Turning to `CC[C@@H](NC(=O)c1ccc2c(c1)/C(=C/c1[nH]c(C)c(C(=O)N3CCN(C)CC3)c1C)C(=O)N2)c1ccccc1` [II.7, (3Z)-3-({3,5-dimethyl-4-[(4-methylpiperazin-1-yl)carbonyl]-1H-pyrrol-2-yl}methylene)-2-oxo-N-[(1R)-1-phenylpropyl]indoline-5-carboxamide], the IC50 against full length GRK5 is 2 to 10 µM; in the test with 3T3-L1 cells, 1.07 µM; in the test on beta TC6 cells it was 1.19 µM; with C2C12 cells, 1.31 µM; in the test on HepG2 cells, 0.69 µM.

Consider `CCN(CC)CCNC(=O)c1c(C)[nH]c(/C=C2\C(=O)Nc3ccc(C(=O)N[C@H](C)c4ccccc4)cc32)c1C` [II.59, (3Z)-3-[(4-{[2-(diethylamino)ethyl]carbamoyl}-3,5-dimethyl-1H-pyrrol-2-yl)methylene]-2-oxo-N-[(1R)-1-phenylethyl]indoline-5-carboxamide], for which the half-maximal inhibitory concentration (IC50) in the test on 3T3-L1 cells came out at 0.63 µM; in the test on beta TC6 cells it was 0.71 µM; with C2C12 cells it was 1.11 µM; in the test with HepG2 cells it was 0.37 µM.

Take `COC(=O)[C@H](COC(C)(C)C)NC(=O)c1c(C)[nH]c(/C=C2\C(=O)Nc3ccc(C(=O)O)cc32)c1C` [II.141, (3Z)-3-[4-(2-tert-butoxy-(1S)-1-methoxycarbonyl-ethylcarbamoyl)-3,5-dimethyl-1H-pyrrol-2-ylmethylene]-2-oxo-2,3-dihydro-1H-indole-5-carboxylic acid]: the half-inhibitory concentration (IC50) against full length GRK5 was 2 to 10 µM; with 3T3-L1 cells, 3.41 µM; in the test with beta TC6 cells, more than 10 µM; in the test on C2C12 cells, more than 10 µM; in the test on HepG2 cells, more than 10 µM.

For the compound `COc1cccc([C@@H](C)NC(=O)c2ccc3c(c2)/C(=C/Nc2ccc(CN4CCCCC4)cc2)C(=O)N3)c1` [II.79, (3Z)-N-[(1R)-1-(3-methoxyphenyl)ethyl]-2-oxo-3-({[4-(piperidin-1-ylmethyl)phenyl]amino}methylene)indoline-5-carboxamide], the IC50 is less than 0.1 µM against full length GRK5; more than 10 µM with 3T3-L1 cells; 2.05 µM with beta TC6 cells; more than 10 µM with C2C12 cells; 2.08 µM in the test with HepG2 cells.

Take `COC(=O)[C@@H](Cc1ccccc1)NC(=O)c1c(C)[nH]c(/C=C2\C(=O)Nc3ccc(C(=O)O)cc32)c1C` [II.140, (3Z)-3-[4-((1R)-1-methoxycarbonyl-2-phenyl-ethylcarbamoyl)-3,5-dimethyl-1H-pyrrol-2-ylmethylene]-2-oxo-2,3-dihydro-1H-indole-5-carboxylic acid]: the IC50 against full length GRK5 was 1 to 2 µM; with 3T3-L1 cells, 4 µM; in the test with beta TC6 cells, more than 10 µM; in the test on C2C12 cells, more than 10 µM; with HepG2 cells, more than 10 µM.

`CCC(NC(=O)c1ccc2c(c1)/C(=C/c1[nH]c(C)c(CCC(=O)NCCN(CC)CC)c1C)C(=O)N2)c1cccc(Cl)c1` (stereo not drawn) [II.135, (3Z)-3-{4-[2-(2-diethylamino-ethylcarbamoyl)-ethyl]-3,5-dimethyl-1H-pyrrol-2-ylmethyiene}-2-oxo-2,3-dihydro-1H-indole-5-carboxylic acid [1-(3-chloro-phenyl)-propyl]-amide]: the half-maximal inhibitory concentration (IC50) was less than 0.1 µM against full length GRK5; 1.35 µM in the test on 3T3-L1 cells; 1.55 µM in the test with beta TC6 cells; more than 10 µM in the test on C2C12 cells; 1.85 µM with HepG2 cells.

Consider `C[C@@H](NC(=O)c1ccc2c(c1)/C(=C/Nc1ccc(CN3CCCCC3)cc1)C(=O)N2)c1cccc(Cl)c1` [II.80, (3Z)-N-[(1R)-1-(3-chlorophenyl)ethyl]-2-oxo-3-({[4-(piperidin-1-ylmethyl)phenyl]amino}methylene)indoline-5-carboxamide], for which the 50% inhibitory concentration (IC50) on full length GRK5 is less than 0.1 µM; in the test on 3T3-L1 cells, more than 10 µM; in the test with beta TC6 cells, 0.47 µM; with C2C12 cells, more than 10 µM; in the test with HepG2 cells, 3.9 µM.

As to `CC[C@@H](NC(=O)c1ccc2c(c1)/C(=C/Nc1ccc(CN3CCCCC3)cc1)C(=O)N2)c1ccccc1` [II.69, (3Z)-2-oxo-N-[(1R)-1-phenylpropyl]-3-({[4-(piperidin-1-ylmethyl)phenyl]amino}methylene)-indoline-5-carboxamide], the IC50 against full length GRK5 is less than 0.1 µM; in the test with 3T3-L1 cells, more than 10 µM; in the test with beta TC6 cells, more than 10 µM; in the test on C2C12 cells, 5.63 µM; in the test on HepG2 cells it was 4.51 µM.

Take `C[C@@H](NC(=O)c1ccc2c(c1)/C(=C/Nc1ccc(CN3CCCCC3)cc1)C(=O)N2)c1ccccc1` [II.78, (3Z)-2-oxo-N-[(1R)-1-phenylethyl]-3-({[4-(piperidin-1-ylmethyl)phenyl]amino}methylene)indoline-5-carboxamide]: the IC50 against full length GRK5 was less than 0.1 µM; in the test with 3T3-L1 cells, more than 10 µM; with beta TC6 cells, more than 10 µM; in the test on C2C12 cells, more than 10 µM; in the test with HepG2 cells, 5.73 µM.

On to `CC[C@@H](NC(=O)c1ccc2c(c1)/C(=C/c1[nH]c(C)c(C(=O)NCCN3CCCC3)c1C)C(=O)N2)c1ccccc1` [II.6, (3Z)-3-({3,5-dimethyl-4-[(2-pyrrolidin-1-ylethyl)carbamoyl]-1H-pyrrol-2-yl}methylene)-2-oxo-N-[(1R)-1-phenylpropyl]indoline-5-carboxamide], for which the IC50 at full length GRK5 was 0.1 to 1 µM; in the test on 3T3-L1 cells it was 1.7 µM; with beta TC6 cells, 0.42 µM; in the test with C2C12 cells it was 1.49 µM; with HepG2 cells, 0.27 µM.

For the compound `Cc1[nH]c(/C=C2\C(=O)Nc3ccc(C(=O)N[C@H](C)c4ccccc4)cc32)c(C)c1C(=O)N1CCCCC1` [II.14, (3Z)-3-{[3,5-dimethyl-4-(piperidin-1-ylcarbonyl)-1H-pyrrol-2-yl]methylene}-2-oxo-N-[(1R)-1-phenylethyl]indoline-5-carboxamide], the IC50 was 0.1 to 1 µM against full length GRK5; 0.75 µM in the test on 3T3-L1 cells; 1.19 µM with beta TC6 cells; 1.42 µM in the test with C2C12 cells; 0.72 µM in the test on HepG2 cells.

With `CCC(NC(=O)c1ccc2c(c1)/C(=C/c1[nH]c(C)c(C(=O)NCCN3CCCC3)c1C)C(=O)N2)c1ccc(Cl)cc1` (stereo not drawn) [II.13, (3Z)-N-[1-(4-chlorophenyl)propyl]-3-({3,5-dimethyl-4-[(2-pyrrolidin-1-ylethyl)carbamoyl]-1H-pyrrol-2-yl}methylene)-2-oxoindoline-5-carboxamide], the IC50 at full length GRK5 is 0.1 to 1 µM; in the test with 3T3-L1 cells, more than 10 µM; with beta TC6 cells it was 1.63 µM; in the test on C2C12 cells it was 4.61 µM; in the test with HepG2 cells, 1.59 µM.
